Laboratory results published in publication PMC12523804, “Evaluation of molecular mechanisms of (Z)-3-(pentadec-10′-enyl)-catechol (litreol) and synthetic derivatives as inhibitors of human leukotriene biosynthesis” (Redox Biology, 2025).

Assays:
human PMNLs = assay: Lactate dehydrogenase release (LDH assay) in PMNL; assay type: cell-based
Method: After treatment of PMNL, supernatants were centrifuged (600g × 5 min, 4 °C), and 100 μL of supernatant were mixed with 200 μL LDH reaction buffer (75 mM Tris/HCl, pH 7.4, 0.3 mM NADH, 1.5 mM Na-pyruvate) in a 96-well plate. The decrease of NADH was measured immediately by absorbance at 340 nm in a kinetic mode (every 7 s for 20 min; Multiskan Spectrum). As a positive control for maximal LDH release, cells treated with 1 % Triton X-100 were included in each experiment, while untreated cells and vehicle (DMSO) served as negative controls.

ROS formation in PMNL = assay: ROS formation in neutrophils (DCF-DA); assay type: cell-based, human; conditions: 1 and 10 μM, 0.1 μM PMA
Method: Neutrophils (10^7 cells/mL in PG buffer) were pre-incubated for 15 min at 37 °C with litreol compounds, diphenyleneiodonium chloride (DPI, used as a positive control for ROS inhibition), or 0.1 % DMSO as vehicle control. Then, 2′,7′-dichlorofluorescence-diacetate (DCF-DA; 1 μg/mL) and CaCl2 (1 mM) were added 2 min prior to addition of 0.1 μM phorbol myristate acetate (PMA, AppliChem, Darmstadt, Germany). The fluorescence emission at 530 nm was measured after excitation at 485 nm in a thermally controlled (37 °C) NOVOstar microplate reader (BMG Labtechnologies GmbH, Offenburg, Germany).

p38 MAPK = assay: Western blot of p38 MAPK phosphorylation; assay type: cell-based, human; conditions: for fMLP-induced activation (phosphorylation) of p38 MAP kinase: PMNL, 1 μM compound, 1 μM fMLP
Method: (§1) Human polymorphonuclear leukocytes (PMNLs; 50 × 10^6), isolated from whole blood, were resuspended in 1 mL of cold PGC buffer. Briefly, neutrophils were pre-incubated for 15 min at 37 °C with test compounds (1 μM). […] The samples were subsequent centrifuged (1200g, 10 min) and the pellets were resuspended in 100 μL od SDS-PAGE loading buffer (2x) (Tris 1 M pH 8, EDTA 0.2 M, 10 % SDS, 10 % mercaptoethanol). Correct protein loading on the gels and transfer of proteins to the nitrocellulose membrane were confirmed by Ponceau staining. Membranes with transferred proteins were incubated overnight with primary antibodies in 1x Tris Buffered Saline (TBS) with 1 % Casein (Biorad- #1610782). Membranes were then washed and incubated with horseradish peroxidase-conjugated secondary antibodies for 1 h at room temperature. Blots were developed using enhanced chemiluminescence detection reagents ECL (Immobilion ECL Ultra Western HRP Substrate - Cat# WBULS0500 Millipore) and acquired using ChemiDoc Imaging System (BioRad). Antibody recognizing phosphorylated p38-MAPkinase, pERK, ERK, NfKB were from Cell Signalling Technology (Boston, MA) and used at 1:1000 dilution. Secondary antibodies were purchased from Biorad (170–6515; 170–6516) and used at 1:2000 diluition.

ERK = assay: Western blot of ERK phosphorylation; assay type: cell-based, human; conditions: for fMLP-induced activation (phosphorylation) of ERK: PMNL, 1 μM compound, 1 μM fMLP
Method: as §1

5-LO = target: T1, 5-LO (Homo sapiens, UniProt P09917); assay: 5-LO product formation in intact human PMNL (neutrophils); assay type: cell-based; parameters: endogenous in cells; host or cells: human PMNL from peripheral blood of healthy volunteers; conditions: for IC50: intact human PMNL
T1 sequence (P09917 1-674): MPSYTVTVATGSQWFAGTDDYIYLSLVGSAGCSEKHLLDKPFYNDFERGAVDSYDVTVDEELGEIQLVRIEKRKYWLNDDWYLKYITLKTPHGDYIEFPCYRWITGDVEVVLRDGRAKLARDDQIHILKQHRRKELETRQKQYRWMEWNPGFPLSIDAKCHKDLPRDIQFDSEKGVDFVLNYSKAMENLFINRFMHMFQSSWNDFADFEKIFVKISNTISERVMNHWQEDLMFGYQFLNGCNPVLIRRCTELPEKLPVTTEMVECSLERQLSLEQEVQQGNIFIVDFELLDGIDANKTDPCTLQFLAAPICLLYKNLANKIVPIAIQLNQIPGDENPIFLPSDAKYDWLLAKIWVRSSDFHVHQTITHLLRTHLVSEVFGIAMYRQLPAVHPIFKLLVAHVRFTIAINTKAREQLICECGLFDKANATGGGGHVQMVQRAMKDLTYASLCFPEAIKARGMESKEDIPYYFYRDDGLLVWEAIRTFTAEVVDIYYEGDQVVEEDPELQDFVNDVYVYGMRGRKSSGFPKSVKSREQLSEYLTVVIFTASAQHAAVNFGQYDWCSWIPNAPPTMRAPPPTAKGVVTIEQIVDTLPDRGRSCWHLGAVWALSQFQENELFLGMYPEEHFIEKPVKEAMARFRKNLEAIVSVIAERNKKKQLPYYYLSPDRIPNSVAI
Method: PMNL and monocytes were isolated from human peripheral blood of adult healthy volunteers, with consent, obtained from the Institute of Transfusion Medi-cine, University Hospital Jena (Germany). PMNL were immediately isolated by dextran sedi-mentation, centrifugation on Nycoprep cushions, and hypotonic lysis of erythrocytes, as described. PMNL viability was analyzed by trypan blue exclusion with a Vi-cell counter (Beckmann Coulter GmbH, Krefeld). HEK-293 cells were grown in DMEM/High Glucose (4.5 g/L) medium supplemented with heat-inactivated fetal calf serum (FCS, 10 %, vv_1), 100 U/mLpenicillin, and 100 µg/mL streptomycin at 37 °C in a 5 % CO2 incubator. HEK-293 cells were stably transfected with 5-LO and FLAP as validated experimental cell-based model for studying the regulation of 5-LO [28]. None of the cell lines used in this study were authenticated.
Freshly isolated human PMNL (5 × 10^6) were resuspended in 1 mL PBS buffer containing 1 mg/mL glucose (PG buffer). […] After 10 min at 37 °C, the reaction was stopped with 1 mL of methanol for 10 min on ice and LO products formed and released in the supernatants were extracted and analyzed by HPLC. In detail, after centrifugation (800g, 10 min, room temperature) the samples were applied to C-18 solid-phase extraction columns (100 mg; IST, Mid Glamorgan, United Kingdom), preconditioned with 1 mL methanol and 1 mL water. The columns were washed with 1 mL water and 1 mL water/methanol (75/25, vol/vol) and 5-LO metabolites were eluted with 300 μL methanol. The extract was then diluted with 120 μL water, and 100 μL diluted extract were analyzed by HPLC using a C-18 Radial-Pak column (Waters) eluted with methanol/water/acetic acid 75/25/0.1 (vol/vol/vol) at a flow rate of 1.2 mL/min. Amounts of different metabolites were determined by peak area integration. 5-LO products analyzed include LTB4 and its two all-trans isomers, 5(S)-hydroxy-6-trans-8,11,14-cis-eicosatetraenoic acid (5-HETE), and 5(S)-hydroper-oxy-6-trans-8,11,14-cis-eicosatetraenoic acid (5-HpETE). 5-HETE and 5-HpETE coelute as one major peak, and the integration of this peak represented both eicosanoids.

[1] = Cell-based A23187 (IC50 of 5-LO product formation), […] A23187, 10 min
[2] = Cell-based A23187 + AA (IC50 of 5-LO product formation), […] A23187 plus 20 μM AA, 10 min

SMILES	cytotoxicity on PMNL (LDH levels in the supernatants) (human PMNLs)	ROS formation in PMA-stimulated PMNL (ROS formation in PMNL)	phosphorylation and expression of p38 MAPK (Western blot) (p38 MAPK; LPS stimulation)	fMLP-induced activation (phosphorylation) of p38 MAP kinase (p38 MAPK)	phosphorylation and expression of ERK (Western blot) (ERK; LPS stimulation)	fMLP-induced activation (phosphorylation) of ERK (ERK)	IC50 (5-LO; [1])	IC50 (5-LO; [2])	fold greater potency compared to hydrogenated analogue CS (5-LO; comparison of IC50 values (neutrophils and cell-free))
CCCC/C=C\CCCCCCCCCc1cccc(O)c1O [CI, (Z)-3-(pentadec-10′-enyl)-catechol]	comparable to those of untreated controls	not affected	significantly inhibited	inhibited	significantly inhibited	inhibited	260 nM	90 nM	2.5- to 3 fold
CCCCCCCCCCCCCCCc1cccc(O)c1O [CS, 3-n-pentadecylcatechol]	comparable to those of untreated controls	not affected	–	did not show significant effects	–	did not show significant effects	800 ± 500 nM	70 nM	–
